Where “and” joins values, the source holds several entries; their conditions need not be identical. Equal entries are not always repeated. Where two headings read alike, the source gives them in different places.
What was measured:
[1] = target: T1, Cathepsin B from human placenta (Homo sapiens, UniProt P07858); assay: Inhibition of cathepsin B, Z-Arg-Arg-AMC fluorescence progress curves; assay type: biochemical; conditions: for k/KI (kirr/KI): values without asterisk, 25° C., pH 6.2
T1 construct: Cathepsin B from human placenta, obtained from Sigma; purchased Sigma; host or cells: human placenta (tissue)
How it was run: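 Human placental enzyme (~10 nM) in 50 mM phosphate pH 6.2 with 2.5 mM DTT and 2.5 mM EDTA, 50 μM Z-Arg-Arg-AMC, inhibitors 30-0.001 μM, 25° C. AMC fluorescence (ex 380/em 460 nm) progress curves fitted for kobs; kobs/[I] reported, with kirr, KI and kirr/KI substrate-corrected for selected compounds.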

[2] = system: Leishmania donovani amastigote infected mouse peritoneal macrophages; assay: In vitro antiprotozoal activity, Leishmania donovani; assay type: cell-based; parameters: key to percentage inhibition, L. donovani: the term "T" indicates the molecule to have displayed cytotoxicity
Experimental: (§1) In this table, the in vitro antiprotozoal activities of the indicated compounds were measured as percentage inhibition of Leishmania donovani amastigote infecteda mouse peritoneal macrophages, Trypanosoma cruzi amastigote infected macrophages, and Trypanosoma brucei extracellular bloodstream forms.

[3] = system: Trypanosoma cruzi amastigote infected macrophages; assay: In vitro antiprotozoal activity, Trypanosoma cruzi; assay type: cell-based; parameters: key to percentage inhibition, T. cruzi: the term "T" indicates the molecule to have displayed cytotoxicity
Experimental: as §1

[4] = system: Trypanosoma brucei extracellular bloodstream forms; assay: In vitro antiprotozoal activity, Trypanosoma brucei; assay type: cell-based
Experimental: as §1

[5] = system: human malarial parasite Plasmodium falciparum; assay: In vitro protease activity of malarial parasite, substrate Z-Phe-Arg-AMC; assay type: biochemical; conditions: cells printed in nM; read-out: P. falciparum IC50 (human)
From the text: (§2) The following table summarizes the comparative IC50 values for selected cysteine protease inhibitors against the human malarial parasite Plasmodium falciparum and the mouse malarial parasite Plasmodium vinckei. The substrate used to measure in vitro protease activity was Z-Phe-Arg-AMC.

[6] = system: mouse malarial parasite Plasmodium vinckei; assay: as above; assay type: biochemical; conditions: cells printed in nM; read-out: P. vinckei IC50 (murine)
From the text: as §2

Female Lewis rats = assay: Mycobacterium butyricum induced arthritis in rats, compound in chow, 28 days; assay type: in vivo, rat
Experimental: At day zero, Female Lewis rats (5/group), 5 weeks old, were given intradermal injection into the base of the tail of Mycobacterium butyricum in 0.1 ml of light mineral oil. The animals were provided Teklad (4%) rat chow mixed with (treated groups) or without compound (control group) and water ad libilum. The compounds used were Mu-Phe-HphVSPh, Mu-Leu-HphVSPh, Mu-Tyr-HphVSPh, Mu-Phe-Lys(ε-Z)VSPh, Mu-Phe-LysVSPh-HBr. The compounds were given to three groups at 3, 10, and 30 mg/kg/day, respectively. The following parameters were noted: biweekly weights and biweekly joint evaluations by the following scoring system: paw swelling 0=no edema, 1=slight edema of small digital joints, 2=edema of the digital joints and foot pad, 3=gross edema of the entire foot pad below that ankle or elbow, 4=gross edema of the entire foot pad including the ankle and elbow joint Erythema was scored as: 0=normal, 1=pink, 2=red, 3=deep violaceous. The evaluators were blinded as to treatment groups.
After 28 days the animals were killed and the hind paws and knees were removed and fixed in 4% paraformaldehyde. […] Joint histopathology scores were calculated by the following method: two sections of each joint were read for synovial cell proliferation, cartilage erosion, bone erosion, fibroproliferative pannus, diffuse inflammatory synovitis, and synovial vasculitis: 0=normal, 1=mild, 2=moderate, 3=and severe. […]

U251MGn = assay: Matrigel barrier migration assay, U251MGn; assay type: cell-based, human; parameters: dose or concentration left out as unconfirmed
Experimental: Two permanent human glioma cell lines (U87MG and U251MGn) and a well characterized low passage primary culture derived from a CB-positive glioblastoma (HF66) were used to assess the migratory behavior in the Matrigel barrier migration assay in the presence of graded concentrations of four compounds.
Using the Matrigel assay, Mu-Leu-HphVSPh, Mu-Tyr-HphVSPh, Mu-Phe-HphVSPh, and Mu-Tyr(I2)-HphVSPh (all at 10 mM) inhibited U251MGn by 67, 56, 29, & 20% respectively, while the U87MG cells were inhibited 53, 75, 63, & 56% respectively. The primary culture HF66 cells were inhibited only 10% by these compounds at the same concentration.

Row | k/KI (kirr/KI) [1] | IC50 [5] [nM] | IC50 [6] [nM] | SMILES | percentage inhibition, L. donovani ([2]; 3 uM) [%] | percentage inhibition, L. donovani ([2]; 10 uM) [%] | percentage inhibition, L. donovani ([2]; 30 uM) [%] | percentage inhibition, L. donovani ([2]; 90 uM) | percentage inhibition, T. cruzi ([3]; 3 uM) [%] | percentage inhibition, T. cruzi ([3]; 10 uM) [%] | percentage inhibition, T. cruzi ([3]; 30 uM) [%] | percentage inhibition, T. cruzi ([3]; 90 uM) | percentage inhibition, T. brucei ([4]; 3 uM) [%] | percentage inhibition, T. brucei ([4]; 10 uM) [%] | percentage inhibition, T. brucei ([4]; 30 uM) [%] | percentage inhibition, T. brucei ([4]; 90 uM) [%] | inhibition of U251MGn migration (U251MGn) [%] | further results
1 | 4250 M⁻¹ s⁻¹ | 3 | 200 | CC(C)C[C@H](NC(=O)N1CCOCC1)C(=O)N[C@H](/C=C/S(=O)(=O)c1ccccc1)CCc1ccccc1 [Mu-Leu-HphVSPh, (S)-(E)-3-(4-morpholinecarbonylleucyl)amino-5-phenyl-1-phenylsulfonyl-1-pentene] | 4.6 | 0 | 15.3 | T | 0 | 0 | 11.4 | T | 11.2 | 82.2 | 84.7 | 100 | 67 | bone and cartilage destruction (Female Lewis rats; high dose): reduction in bone and cartilage destruction
2 | 16,400 M^-1 sec^-1 | 80 | 50 | O=C(N[C@H](/C=C/S(=O)(=O)c1ccccc1)CCc1ccccc1)C(Cc1ccccc1)NC(=O)N1CCOCC1 (stereo partly drawn) [Mu-Phe-HphVSPh, (S)-(E)-3-(4-morpholinecarbonyl-phenylalanyl)amino-5-phenyl-1-phenylsulfonyl-1-pentene] | 0 | 0 | 9.4 | T | 10 | 10 | 50.1 | T | 90.5 | 82.7 | 100 | 100 | 29 | kirr [1]: 0.17 s⁻¹; Ki ([1]; corrected for substrate): 11 µM; kirr ([1]; listed as Mu-Phe-Hph-VSPh): 0.061 s⁻¹ and 0.12 s⁻¹; ED50, T. brucei [4]: 2.19 µM; percentage inhibition, T. brucei ([4]; 1 uM): 10.2%; effect on all scores (paw swelling, erythema, joint histopathology) (Female Lewis rats; 3, 10, and 30 mg/kg/day in chow, 28 days): dose dependent beneficial effect on all scores

— patent US6287840A (Axys Pharmaceuticals, Inc., priority 1999, dated 2001)
